We go through one compound from US11730746B2, “17beta-heterocyclyl-digitalis like compounds for the treatment of heart failure” (priority 2018, dated 2023).

The target of data set [1] is T1, dog renal Na,K-ATPase (Canis lupus familiaris, UniProt P50997).
T1 construct: incubated with 0.3 μg of purified dog kidney enzyme; from tissue; host or cells: dog kidney outer medulla
Description: Inhibition of dog renal Na,K-ATPase activity (32P-ATP release). The class given is biochemical. As for the experimental part: Kidneys were sliced and the outer medulla was dissected, pooled and suspended (1 g/10 ml) in a sucrose-histidine solution, containing 250 mM sucrose, 30 mM histidine and 5 mM EDTA, pH 7.2 and homogenized. […] The pellet was suspended in the sucrose-histidine buffer and incubated for 20 min with a sodium-dodecyl-sulphate (SDS) solution dissolved in a gradient buffer, containing 25 mM imidazole and 1 mM EDTA, pH 7.5. […] The pellet was suspended in the gradient buffer.
Increasing concentrations of the standard ouabain, or tested compound, were incubated with 0.3 μg of purified dog kidney enzyme for 10 min at 37° C. in 120 μl final volume of a medium, containing 140 mM NaCl, 3 mM MgCl2, 50 mM Hepes-Tris, 3 mM ATP, pH 7.5. […] The inhibitory activity was expressed as percent of the control samples carried out in the absence of ouabain or tested compound.

The test system of data set [2] is guinea pig. Description: Haemodynamics: inotropic and lethal dose in guinea pig. The class given is in vivo. On the procedure:
Guinea-pigs (400-450 g) were anaesthetized with urethane (1.5 g/kg ip). A microtip pressure transducer was introduced into the left ventricle through the right carotid artery to measure ventricular pressure (LVP); the transducer was coupled with a transducer amplifier. Recordings were fed to a polygraph and analyzed. A polythene cannula was inserted into a jugular vein for drug infusion. After a stabilization period, the test substance was injected at the rate of 0.16 ml/min for 90 min (Micheletti R et al. J Pharmacol Exp Ther 2002; 303:592-600).
The following parameters were obtained: heart rate (HR), left ventricular pressure (LVP), maximal velocity of pressure rise (+dP/dtmax) and decay (−dP/dtmax), ECG. For inotropy, the time elapsed until +dP/dtmax increased by 80% was identified in order to determine the ED80 (dose increasing basal +dP/dtmax by 80%). The time to the maximum increase in +dP/dtmax was also identified to determine the maximum effective dose, EDmax. Lusitropy was characterized by the dose inducing the maximum decrease in −dP/dtmax, (EDmax). As indexes of toxicity, the dose administered until the onset of arrhythmias and the dose inducing death (LD) were calculated. The safety ratio for the tested compound was also calculated as the ratio between LD and ED80.

Data set [3] deals with STZ diabetic rats. Description: Haemodynamics in streptozotocin diabetic rats (echocardiography). The data set is classed as in vivo, rat. As to conditions: 20 mg/kg os, after treatment, mean ± SD, n = 12. On the procedure:
Sprague Dawley male rats (150-175 g) were made diabetic by a single injection into the tail vein of a solution of streptozotocin (STZ, 50 mg/kg, Sigma-Aldrich), freshly prepared in 0.1 M sodium citrate buffer, pH 4.5. Control rats received citrate buffer. Fasting glycaemia was measured after 1 week and rats with values >400 mg/dl were considered diabetic.
Eight-nine weeks after STZ injection, rats were submitted to transthoracic echocardiographic and Doppler evaluation performed under pentobarbital anesthesia. Two-dimensionally guided M-mode recordings were used to obtain short-axis measurements of left ventricular end-diastolic diameter (LVEDD), left ventricular end-systolic diameter (LVESD), posterior (PW) and septal (SW) diastolic wall thickness according to the American Society of Echocardiography guidelines (Lang R M et al. Eur J Echocardiography 2006; 7:79-108). Fractional shortening was calculated as FS=(LVEDD-LVESD)/LVEDD. Relative wall thickness was calculated as PWTd+IVSTd/LVEDD.
Mitral inflow was measured by pulsed Doppler at the tips of mitral leaflets from an apical 4-chamber view to obtain early and late filling velocities (E, A) and deceleration time of early filling velocity (DT). The deceleration slope was calculated as E/DT ratio. The mitral deceleration index was calculated as DT/E ratio.
Tissue Doppler Imaging (TDI) was evaluated from the apical 4-chamber view to record septal mitral annular movements, i.e., peak myocardial systolic (s′) and early and late diastolic velocity (e′ and a′).
Compound CVie 101 was orally administered to STZ injected rats at the dose of 20 mg/kg and echocardiographic parameters were measured after 1 h.

Data set [4] has as its target T2, SERCA2a (Canis lupus familiaris, UniProt O46674).
T2 construct: pre-incubated with 2 μg of microsomes; from tissue; host or cells: dog heart left ventricle, SR microsomes
The conditions noted are these: literature (Rocchetti 2005; Ferrandi 2013); cited from earlier work.

Data set [5] has as its system mouse (Albino Swiss CD-1). The conditions noted are these: i.v., data from literature; cited from earlier work.
The conditions of data set [6]: literature (Packer 2016, 2018); cited from earlier work.

T2 sequence (O46674 whole entry): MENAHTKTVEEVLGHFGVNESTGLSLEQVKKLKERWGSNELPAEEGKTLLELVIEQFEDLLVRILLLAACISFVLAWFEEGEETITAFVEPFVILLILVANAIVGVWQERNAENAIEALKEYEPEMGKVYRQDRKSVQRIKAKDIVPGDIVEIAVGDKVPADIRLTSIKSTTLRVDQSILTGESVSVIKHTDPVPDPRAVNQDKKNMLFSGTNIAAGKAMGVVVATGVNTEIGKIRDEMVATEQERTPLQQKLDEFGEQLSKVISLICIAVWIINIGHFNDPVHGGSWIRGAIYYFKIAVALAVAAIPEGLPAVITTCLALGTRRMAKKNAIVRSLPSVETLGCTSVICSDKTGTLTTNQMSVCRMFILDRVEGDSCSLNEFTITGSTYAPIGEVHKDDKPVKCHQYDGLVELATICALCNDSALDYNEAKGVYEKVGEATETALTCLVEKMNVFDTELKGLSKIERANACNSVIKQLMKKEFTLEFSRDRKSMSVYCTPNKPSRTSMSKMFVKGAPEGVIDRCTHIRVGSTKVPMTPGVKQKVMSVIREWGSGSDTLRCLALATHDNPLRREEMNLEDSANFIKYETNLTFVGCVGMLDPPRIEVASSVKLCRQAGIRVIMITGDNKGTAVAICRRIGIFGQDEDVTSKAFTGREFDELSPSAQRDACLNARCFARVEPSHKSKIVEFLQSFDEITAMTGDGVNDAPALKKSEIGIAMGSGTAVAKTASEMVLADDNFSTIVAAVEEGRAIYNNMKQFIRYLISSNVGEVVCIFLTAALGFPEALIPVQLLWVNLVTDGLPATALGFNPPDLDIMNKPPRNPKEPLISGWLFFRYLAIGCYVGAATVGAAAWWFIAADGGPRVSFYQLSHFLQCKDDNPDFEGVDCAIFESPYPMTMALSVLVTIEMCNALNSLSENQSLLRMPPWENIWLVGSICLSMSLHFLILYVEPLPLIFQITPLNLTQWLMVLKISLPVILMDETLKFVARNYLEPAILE

As usually defined, the IC50 is the concentration that gives 50% inhibition. One may read the LD50 as the dose expected to kill half of the subjects tested. In turn, `C[C@H]1O[C@@H](O[C@H]2[C@@H](O)C[C@H](O[C@H]3[C@@H](O)C[C@H](O[C@H]4CC[C@@]5(C)[C@H](CC[C@@H]6[C@@H]5C[C@@H](O)[C@]5(C)[C@@H](C7=CC(=O)OC7)CC[C@]65O)C4)O[C@@H]3C)O[C@@H]2C)C[C@H](O)[C@@H]1O` [Digoxin, reference compound] returned an IC50 in data set [1] of 300 nM. Also, the ED80 in data set [2] (guinea pig, in vivo) was 0.69 mg/kg. Moreover, in data set [2] (i.v. infusion […]), the Lethal dose is reported as 1.20 mg/kg. In addition, in data set [3], the “A (late filling velocity of mitral inflow)” value was 0.92 ± 0.1 m/s, the “A′ (TDI late relaxation velocity)” value was 35.8 ± 5 cm/s, the “CO (cardiac output)” value amounted to 246.8 ± 72 mL/min and the “DT (deceleration time of E wave)” value was found to be 39.2 ± 9.34 ms. Besides, in data set [3], the “E (early filling velocity of mitral inflow)” value was 1.02 ± 0.13 m/s, the “E/DT (deceleration slope)” value is recorded as 27.9 ± 9.8 m/s2, the “E′ (TDI early relaxation velocity)” value is recorded as 23.7 ± 1.35 cm/s and the “FS (fractional shortening)” value is 47.2 ± 3.24 %. In data set [3], the “HR (heart rate)” value was found to be 308 ± 39 beat/min, the “SV (stroke volume)” value came out at 0.80 ± 0.19 ml/beat and the “S′ (TDI contraction velocity)” value is recorded as 26.7 ± 2.77 cm/s. Further, the SERCA2a activity entry in data set [4] was “failed to stimulate”. For the same compound, the 50% lethal dose (LD50) in data set [5] is reported as 7.7 mg/kg. Also, in data set [6], the “serum concentration ranges at which digoxin displays its beneficial effects” value was 0.5 to 0.7 ng/mL and the “serum threshold level above which increased risk of death, mainly due to arrhythmias, has been observed” value is 0.9 ng/mL.
